According to ChEMBL document CHEMBL1201862, “PubChem BioAssay data set” (2004):
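Cells were grown in 96-well plates and exposed to each compound for 48 hours at five concentrations; endpoints were interpolated linearly between bracketing concentrations, or set to the highest concentration if not reached. Abbreviation: GI50, concentration required for 50% inhibition of growth.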 Activity calls are given as the source filed them. Cut-off read from the data, not from the text of the source: active = GI50 up to about 1.1 µM and inactive = higher.

How the values were obtained:
Assay in all cases: NCI-60 cell line screen, 48 h
SNB-19 = system: SNB-19
SF-268 = system: SF-268
OVCAR-8 = system: OVCAR-8
A498 = system: A498
MDA-MB-231 = system: MDA-MB-231
NCI-H460 = system: NCI-H460
SK-MEL-5 = system: SK-MEL-5
NCI-H522 = system: NCI-H522
OVCAR-4 = system: OVCAR-4
HOP-62 = system: HOP-62
UACC-257 = system: UACC-257
MDA-N = system: MDA-N
KM12 = system: KM12
SK-MEL-2 = system: SK-MEL-2
UACC-62 = system: UACC-62
MCF7 = system: MCF7
OVCAR-5 = system: OVCAR-5
U-251 = system: U-251
NCI/ADR-RES = system: NCI/ADR-RES
A549 = system: A549
MOLT-4 = system: MOLT-4
RXF 393 = system: RXF 393
DMS-273 = system: DMS-273
HCC 2998 = system: HCC 2998
SR = system: SR
786-0 = system: 786-0
COLO 205 = system: COLO 205
SK-OV-3 = system: SK-OV-3
HCT-116 = system: HCT-116
OVCAR-3 = system: OVCAR-3
SNB-75 = system: SNB-75
LXFL 529 = system: LXFL 529
DMS-114 = system: DMS-114
BT-549 = system: BT-549
HL-60 = system: HL-60
NCI-H23 = system: NCI-H23
DLD-1 = system: DLD-1
RPMI-8226 = system: RPMI-8226
K562 = system: K562
Malme-3M = system: Malme-3M
M19-MEL = system: M19-MEL
EKVX = system: EKVX
KM-20L2 = system: KM-20L2
IGROV-1 = system: IGROV-1
HT-29 = system: HT-29
UO-31 = system: UO-31
NCI-H226 = system: NCI-H226
SN12C = system: SN12C
SF-295 = system: SF-295
PC-3 = system: PC-3
MDA-MB-435 = system: MDA-MB-435
CAKI-1 = system: CAKI-1
CCRF-CEM = system: CCRF-CEM
DU-145 = system: DU-145
SF-539 = system: SF-539
LOX IMVI = system: LOX IMVI
SK-MEL-28 = system: SK-MEL-28
ACHN = system: ACHN
M14 = system: M14
HCT-15 = system: HCT-15
Hs-578T = system: Hs-578T
SW-620 = system: SW-620
XF498 = system: XF498
HOP-92 = system: HOP-92
SNB-78 = system: SNB-78

How did the GI50 (SNB-19) turn out when `COc1ccc(CC(C#N)c2cc(OC)c(OC)c(OC)c2)cc1` (stereo not given) was run?
The GI50 was 98.6 nM (active).

And the GI50 (SF-268)?
The GI50 was 204 nM (active).

What about the GI50 (OVCAR-8) of the same compound?
The GI50 was 135 nM (active).

And the GI50 (A498)?
Its GI50 is 179 nM (active).

What about the GI50 (MDA-MB-231) of the same compound?
The GI50 was 56.1 nM (active).

What about the GI50 (NCI-H460) of the same compound?
Its GI50 is 40.9 nM (active).

What about the GI50 (SK-MEL-5) of the same compound?
The GI50 was 26.6 nM (active).

What about the GI50 (NCI-H522) of the same compound?
Its GI50 is 26.7 nM (active).

What about the GI50 (OVCAR-4) of the same compound?
The GI50 was 7290 nM (inactive).

What about the GI50 (HOP-62) of the same compound?
The GI50 was 86.9 nM (active).

And the GI50 (UACC-257)?
Its GI50 is 35.6 nM (active).

What about the GI50 (MDA-N) of the same compound?
The GI50 was < 10 nM (active).

And the GI50 (KM12)?
Its GI50 is 19.4 nM (active).

And the GI50 (SK-MEL-2)?
The GI50 was 77.5 nM (active).

And the GI50 (UACC-62)?
Its GI50 is 27.5 nM (active).

What about the GI50 (MCF7) of the same compound?
The GI50 was < 16 nM (active).

What about the GI50 (OVCAR-5) of the same compound?
The GI50 was 6270 nM (inactive).

And the GI50 (U-251)?
Its GI50 is 56.8 nM (active).

And the GI50 (NCI/ADR-RES)?
Its GI50 is 18.5 nM (active).

And the GI50 (A549)?
The GI50 was 52.5 nM (active).

And the GI50 (MOLT-4)?
The GI50 was 121 nM (active).

And the GI50 (RXF 393)?
The GI50 was 57.5 nM (active).

And the GI50 (DMS-273)?
Its GI50 is 30.3 nM (active).

And the GI50 (HCC 2998)?
The GI50 was < 41.6 nM (active).

And the GI50 (SR)?
Its GI50 is 20.6 nM (active).

What about the GI50 (786-0) of the same compound?
The GI50 was 125 nM (active).

And the GI50 (COLO 205)?
The GI50 was 29 nM (active).

And the GI50 (SK-OV-3)?
The GI50 was 47.4 nM (active).

What about the GI50 (HCT-116) of the same compound?
The GI50 was 46.6 nM (active).

And the GI50 (OVCAR-3)?
The GI50 was 27.9 nM (active).

What about the GI50 (SNB-75) of the same compound?
The GI50 was 47.5 nM (active).

And the GI50 (LXFL 529)?
Its GI50 is 171 nM (active).

And the GI50 (DMS-114)?
Its GI50 is 41.8 nM (active).

And the GI50 (BT-549)?
Its GI50 is 11900 nM (inactive).

And the GI50 (HL-60)?
The GI50 was 25.8 nM (active).

And the GI50 (NCI-H23)?
The GI50 was 109 nM (active).

What about the GI50 (DLD-1) of the same compound?
Its GI50 is 110 nM (active).

And the GI50 (RPMI-8226)?
The GI50 was 74.1 nM (active).

And the GI50 (K562)?
The GI50 was 24.8 nM (active).

And the GI50 (Malme-3M)?
The GI50 was 36.1 nM (active).

And the GI50 (M19-MEL)?
Its GI50 is 67.6 nM (active).

And the GI50 (EKVX)?
The GI50 was 1560 nM (inactive).

And the GI50 (KM-20L2)?
The GI50 was 54.1 nM (active).

And the GI50 (IGROV-1)?
Its GI50 is 80.9 nM (active).

And the GI50 (HT-29)?
The GI50 was 29 nM (active).

And the GI50 (UO-31)?
Its GI50 is 442 nM (active).

What about the GI50 (NCI-H226) of the same compound?
The GI50 was 773 nM (active).

What about the GI50 (SN12C) of the same compound?
Its GI50 is 135 nM (active).

And the GI50 (SF-295)?
Its GI50 is 18.4 nM (active).

And the GI50 (PC-3)?
The GI50 was 14 nM (active).

What about the GI50 (MDA-MB-435) of the same compound?
The GI50 was < 10 nM (active).

What about the GI50 (CAKI-1) of the same compound?
The GI50 was 45.5 nM (active).

And the GI50 (CCRF-CEM)?
Its GI50 is 66.8 nM (active).

And the GI50 (DU-145)?
Its GI50 is 42.2 nM (active).

What about the GI50 (SF-539) of the same compound?
The GI50 was 43.6 nM (active).

What about the GI50 (LOX IMVI) of the same compound?
Its GI50 is 32.8 nM (active).

And the GI50 (SK-MEL-28)?
The GI50 was 61.9 nM (active).

What about the GI50 (ACHN) of the same compound?
The GI50 was 796 nM (active).

And the GI50 (M14)?
The GI50 was 47.2 nM (active).

And the GI50 (HCT-15)?
The GI50 was 27.6 nM.

And the GI50 (Hs-578T)?
The GI50 was 28.6 nM (active).

And the GI50 (SW-620)?
Its GI50 is 23.6 nM (active).

What about the GI50 (XF498) of the same compound?
Its GI50 is 356 nM (active).

What about the GI50 (HOP-92) of the same compound?
The GI50 was 366 nM (active).

And the GI50 (SNB-78)?
Its GI50 is 227 nM (active).
